Laboratory results taken from paper PMC4982551 (MedChemComm, 2016).

Tested on: selected panel of PTPs (mPTPB, SHP2, PTP1B, CD45, LYP, FAP-1)
Experiment: PTP activity assay, selected panel of PTPs
Format: biochemical
Conditions: pH 7, 25 °C

| Compound | PTP inhibitory activity (in words) |
| --- | --- |
| O=C(COc1ccc2cc(C(O)(C(F)(F)F)C(F)(F)F)c(O)cc2c1)NCCc1ccc(Cl)cc1Cl [7h] | moderate activities |
| O=C(COc1ccc2cc(C(O)(C(F)(F)F)C(F)(F)F)c(O)cc2c1)NC12CC3CC(CC(C3)C1)C2 [7d] | moderate activities |
| OC(c1ccccc1)(C(F)(F)F)C(F)(F)F [1a] | No appreciable activity |
| O=C(COc1ccc2cc(C(O)(C(F)(F)F)C(F)(F)F)c(O)cc2c1)N1c2ccccc2Sc2ccccc21 [7p] | very high activity |
| Cc1ccc(O)c(C(O)(C(F)(F)F)C(F)(F)F)c1 [1b] | moderate activity |
| O=C(COc1ccc2cc(C(O)(C(F)(F)F)C(F)(F)F)c(O)cc2c1)NC1c2ccccc2-c2ccccc21 [7i] | moderate activities |
| Oc1cc2ccccc2cc1C(O)(C(F)(F)F)C(F)(F)F [1f] | the most potent one |
